Consider three molecules from US20180050035A1, “ANTIFUNGAL TREATMENT OF ROSACEA” (Gerbe Labs Inc., priority 2016, published 2018).

Holding throughout (assay type): cell-based
Experiment [1] has as its system Aspergillus fumigatus + Candida albicans co-culture (1:1). The experiment is described as follows: Broth microdilution MIC assay against co-culture of fungal spores. As to conditions: Table 4, repeated MIC study, agent alone, listed as Itraconazone. As to the method:
Broth Microdilution Minimal Inhibitory Concentration (MIC) assays were performed to obtain the MIC values for Itraconazole and Ketoconazole with an antibiotic (Vancomycin or Tobramycin or Amikacin) against the two fungal strains.
The strains were maintained as a frozen glycerol stocks at −80° C. The fungal strains were prepared by thawing a glycerol stock, streaking and growing onto Sabouraud's Dextrose Agar (SDA) plates, overnight at 35±2° C. in aerobic conditions and used for the assay.
The completely synthetic medium RPMI-1640 (with glutamine, without bicarbonate, and with phenol red as a pH indicator) was buffered with 0.165 mol/L MOPS (3-[N-morpholino] propanesulfonic acid) buffer was used as the growth medium for the fungal strains. Overnight cultures of the fungal strains were grown on Difco™ Sabouraud's Dextrose Agar (SDA) plates at 35° C. To induce conidium and sporangiospore formation, the culture plates were transferred to incubator and grown for 5-7 days 30° C. or until good sporulation was obtained. Approximately, 10 mL of 0.85% saline containing 0.01% of Tween 80 was used to poured on to the agar plate containing conidia or sporangiospores and hyphal fragments. The suspension containing conidia or sporangiospores and hyphal fragments was aspirated and transferred to a sterile tube. This mixture was filtered to separate the spores from the vegetative cells of the fungi. […]

The test system of another experiment is Candida albicans. Description: Culture of Patient 7, sensitivity of isolate. As to conditions: Patient 7 culture. From the text:
(§1) The patient underwent the standard workup for CRS, sleep disorder, and nasal obstruction, plus our diagnostic skin test and sinus CT scan.

In a further experiment the test system is gram negative bacteria. Description: Culture of Patient 7, sensitivity of isolate. As to conditions: Patient 7 culture.
Excerpt: as §1

Molecules are shown by their SMILES. Values after ≈ are worked out from the molar mass of the structure shown.

As for `CCC(C)n1ncn(-c2ccc(N3CCN(c4ccc(OCC5COC(Cn6cncn6)(c6ccc(Cl)cc6Cl)O5)cc4)CC3)cc2)c1=O` (stereo not drawn) [Itraconazole], the MIC in experiment [1] came to 1 µg/mL (≈ 1.42 µM). Take `CC(=O)N1CCN(c2ccc(OCC3COC(Cn4ccnc4)(c4ccc(Cl)cc4Cl)O3)cc2)CC1` (stereo not drawn) [Ketoconazole]: the “Sensitivity of cultured isolate” value with Candida albicans is “sensitive”. With `NC[C@H]1O[C@H](O[C@H]2[C@H](O)[C@@H](O[C@H]3O[C@H](CO)[C@@H](O)[C@H](N)[C@H]3O)[C@H](N)C[C@@H]2N)[C@H](N)C[C@@H]1O` [tobramycin], the “Sensitivity of cultured isolate” value in the experiment on gram negative bacteria is on record as “sensitive”.
